From ChEMBL document CHEMBL3351259, “Semi-synthesis of biologically active nisin hybrids composed of the native lanthionine ABC-fragment and a cross-stapled synthetic DE-fragment” (2014)
Values after ≈ are worked out from the molar mass of the structure shown. Active and inactive are the calls of the source. No cut-off for these calls is given here.

Key:
[1] = Induction of membrane leakage in large unilamellar vesicles composed of 1,2-dioleoyl-sn-glycero-3-phosphocholine and 0.2% lipid II […] at 5 uM by carboxyfluorescein based fluorescence spectroscopy; assay type: functional
Bacillus subtilis = assay: Antimicrobial activity against Bacillus subtilis assessed as inhibition of bacterial growth after 24 hrs by broth micro-dilution assay; assay type: functional
[2] = Binding affinity affinity to lipid II (unknown origin) by nisin competitive assay

SMILES: C=C1NC(=O)[C@H]([C@@H](C)CC)NC(=O)[C@@H](NC(=O)/C(=C/C)NC(=O)[C@@H](N)[C@@H](C)CC)CSC[C@@H](C(=O)N[C@@H]2C(=O)N3CCC[C@H]3C(=O)NCC(=O)N[C@H](C(=O)N[C@@H](CCCCN)C(=O)N[C@@H]3C(=O)NCC(=O)N[C@@H](C)C(=O)N[C@@H](CC(C)C)C(=O)N[C@@H](CCSC)C(=O)NCC(=O)N[C@H](C(=O)N[C@@H](CC(N)=O)C(=O)N[C@@H](CC(C)C)c4cn([C@@H](CCCCN)C(=O)N[C@@H]5C/C=C/C[C@@H]6NC(=O)[C@@H](C/C=C/C[C@@H](C(=O)N[C@@H](CCCCC)C(=O)NC)NC(=O)[C@H](CC(N)=O)NC6=O)NC(=O)[C@H](C)NC5=O)nn4)CS[C@H]3C)CS[C@H]2C)NC(=O)[C@H](CC(C)C)NC1=O
- Activity [1]: inactive
- MIC (Bacillus subtilis): 4.07 µM (≈ 11.4 µg/mL)

SMILES: C=C1NC(=O)[C@H]([C@@H](C)CC)NC(=O)[C@@H](NC(=O)/C(=C/C)NC(=O)[C@@H](N)[C@@H](C)CC)CSC[C@@H](C(=O)N[C@@H]2C(=O)N3CCC[C@H]3C(=O)NCC(=O)N[C@H](C(=O)N[C@@H](CCCCN)C(N)=O)CS[C@H]2C)NC(=O)[C@H](CC(C)C)NC1=O
- Activity [1]: inactive
- MIC (Bacillus subtilis): 167 µM (≈ 192 µg/mL)

SMILES: C=C1NC(=O)[C@H]([C@@H](C)CC)NC(=O)[C@@H](NC(=O)/C(=C/C)NC(=O)[C@@H](N)[C@@H](C)CC)CSC[C@@H](C(=O)N[C@@H]2C(=O)N3CCC[C@H]3C(=O)NCC(=O)N[C@H](C(=O)N[C@@H](CCCCN)C(=O)N[C@@H]3C(=O)NCC(=O)N[C@@H](C)C(=O)N[C@@H](CC(C)C)C(=O)N[C@@H](CCSC)C(=O)NCC(=O)N[C@H](C(=O)N[C@@H](CC(N)=O)C(=O)NCc4cn([C@@H](CCCCN)C(=O)N[C@@H]5C/C=C/C[C@@H]6NC(=O)[C@@H](C/C=C/C[C@@H](C(=O)OC)NC(=O)[C@H](CC(N)=O)NC6=O)NC(=O)[C@H](C)NC5=O)nn4)CS[C@H]3C)CS[C@H]2C)NC(=O)[C@H](CC(C)C)NC1=O
- Activity [1]: inactive
- Activity [2]: Active

SMILES: C=C1NC(=O)[C@H]([C@@H](C)CC)NC(=O)[C@@H](NC(=O)/C(=C/C)NC(=O)[C@@H](N)[C@@H](C)CC)CSC[C@@H](C(=O)N[C@@H]2C(=O)N3CCC[C@H]3C(=O)NCC(=O)N[C@H](C(=O)N[C@@H](CCCCN)C(=O)N[C@@H]3C(=O)NCC(=O)N[C@@H](C)C(=O)N[C@@H](CC(C)C)C(=O)N[C@@H](CCSC)C(=O)NCC(=O)N[C@H](C(=O)N[C@@H](CC(N)=O)C(=O)O)CS[C@H]3C)CS[C@H]2C)NC(=O)[C@H](CC(C)C)NC1=O
- Activity [1]: inactive
- Activity [2]: Active
- MIC (Bacillus subtilis): 6.2 µM (≈ 11.7 µg/mL)
